Measured values taken from ChEMBL document CHEMBL1201862, “PubChem BioAssay data set” (2004).
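Grown in 96-well plates, cells were treated for 48 hours with each compound at five concentrations. Insufficient inhibition: endpoint recorded as highest concentration tested. GI50 marks 50% less growth.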 The source made the active and inactive calls. Rule as the data show it: active = GI50 up to about 1.1 µM and inactive = higher.

How the values were obtained:
Experiment in all cases: DTP human tumour cell line panel, 48 h
786-0 = system: 786-0
PC-3 = system: PC-3
SR = system: SR
SNB-19 = system: SNB-19
TK-10 = system: TK-10
M14 = system: M14
SNB-75 = system: SNB-75
HCT-15 = system: HCT-15
UO-31 = system: UO-31
NCI-H460 = system: NCI-H460
HOP-92 = system: HOP-92
SF-268 = system: SF-268
OVCAR-4 = system: OVCAR-4
CCRF-CEM = system: CCRF-CEM
U-251 = system: U-251
DU-145 = system: DU-145
EKVX = system: EKVX
Malme-3M = system: Malme-3M
OVCAR-8 = system: OVCAR-8
MDA-MB-435 = system: MDA-MB-435
NCI-H23 = system: NCI-H23
A498 = system: A498
SW-620 = system: SW-620
HOP-62 = system: HOP-62
T47D = system: T47D
LOX IMVI = system: LOX IMVI
HT-29 = system: HT-29
RXF 393 = system: RXF 393
HL-60 = system: HL-60
ACHN = system: ACHN
IGROV-1 = system: IGROV-1
SK-MEL-5 = system: SK-MEL-5
UACC-257 = system: UACC-257
NCI-H226 = system: NCI-H226
K562 = system: K562
CAKI-1 = system: CAKI-1
OVCAR-3 = system: OVCAR-3
NCI/ADR-RES = system: NCI/ADR-RES
OVCAR-5 = system: OVCAR-5
SK-OV-3 = system: SK-OV-3
KM12 = system: KM12
Hs-578T = system: Hs-578T
COLO 205 = system: COLO 205
BT-549 = system: BT-549
MDA-MB-231 = system: MDA-MB-231
MOLT-4 = system: MOLT-4
HCC 2998 = system: HCC 2998
RPMI-8226 = system: RPMI-8226
HCT-116 = system: HCT-116
SK-MEL-2 = system: SK-MEL-2
UACC-62 = system: UACC-62
NCI-H522 = system: NCI-H522
SF-295 = system: SF-295
SK-MEL-28 = system: SK-MEL-28
A549 = system: A549
MDA-N = system: MDA-N
SF-539 = system: SF-539
SN12C = system: SN12C
MCF7 = system: MCF7

With `O=C1CNc2cc(N3CCN(c4ccccc4)CC3)ccc2N1` as the molecule, how does the GI50 (786-0) read?
The GI50 was > 100 µM (inactive).

And the GI50 (PC-3)?
The GI50 was > 100 µM (inactive).

What about the GI50 (SR) of the same molecule?
Its GI50 is > 100 µM (inactive).

And the GI50 (SNB-19)?
Its GI50 is > 100 µM (inactive).

And the GI50 (TK-10)?
Its GI50 is > 100 µM (inactive).

What about the GI50 (M14) of the same molecule?
The GI50 was > 100 µM (inactive).

What about the GI50 (SNB-75) of the same molecule?
The GI50 was > 100 µM (inactive).

And the GI50 (HCT-15)?
The GI50 was greater than 100 µM.

And the GI50 (UO-31)?
Its GI50 is > 100 µM (inactive).

What about the GI50 (NCI-H460) of the same molecule?
Its GI50 is > 100 µM (inactive).

And the GI50 (HOP-92)?
Its GI50 is > 100 µM (inactive).

And the GI50 (SF-268)?
Its GI50 is > 100 µM (inactive).

And the GI50 (OVCAR-4)?
Its GI50 is > 100 µM (inactive).

And the GI50 (CCRF-CEM)?
The GI50 was > 100 µM (inactive).

What about the GI50 (U-251) of the same molecule?
The GI50 was > 100 µM (inactive).

And the GI50 (DU-145)?
Its GI50 is > 100 µM (inactive).

What about the GI50 (EKVX) of the same molecule?
Its GI50 is 34.1 µM (inactive).

And the GI50 (Malme-3M)?
The GI50 was > 100 µM (inactive).

And the GI50 (OVCAR-8)?
Its GI50 is > 100 µM (inactive).

And the GI50 (MDA-MB-435)?
Its GI50 is > 100 µM (inactive).

And the GI50 (NCI-H23)?
Its GI50 is > 100 µM (inactive).

What about the GI50 (A498) of the same molecule?
Its GI50 is > 100 µM (inactive).

And the GI50 (SW-620)?
The GI50 was > 100 µM (inactive).

And the GI50 (HOP-62)?
Its GI50 is > 100 µM (inactive).

What about the GI50 (T47D) of the same molecule?
Its GI50 is > 100 µM (inactive).

And the GI50 (LOX IMVI)?
Its GI50 is > 100 µM (inactive).

What about the GI50 (HT-29) of the same molecule?
The GI50 was > 100 µM (inactive).

What about the GI50 (RXF 393) of the same molecule?
The GI50 was > 100 µM (inactive).

And the GI50 (HL-60)?
The GI50 was > 100 µM (inactive).

What about the GI50 (ACHN) of the same molecule?
Its GI50 is > 100 µM (inactive).

What about the GI50 (IGROV-1) of the same molecule?
Its GI50 is > 100 µM (inactive).

What about the GI50 (SK-MEL-5) of the same molecule?
Its GI50 is > 100 µM (inactive).

What about the GI50 (UACC-257) of the same molecule?
Its GI50 is > 100 µM (inactive).

And the GI50 (NCI-H226)?
The GI50 was > 100 µM (inactive).

What about the GI50 (K562) of the same molecule?
Its GI50 is > 100 µM (inactive).

And the GI50 (CAKI-1)?
Its GI50 is > 100 µM (inactive).

What about the GI50 (OVCAR-3) of the same molecule?
The GI50 was > 100 µM (inactive).

And the GI50 (NCI/ADR-RES)?
Its GI50 is > 100 µM (inactive).

And the GI50 (OVCAR-5)?
The GI50 was > 100 µM (inactive).

What about the GI50 (SK-OV-3) of the same molecule?
The GI50 was > 100 µM (inactive).

What about the GI50 (KM12) of the same molecule?
The GI50 was > 100 µM (inactive).

What about the GI50 (Hs-578T) of the same molecule?
The GI50 was > 100 µM (inactive).

And the GI50 (COLO 205)?
Its GI50 is > 100 µM (inactive).

What about the GI50 (BT-549) of the same molecule?
The GI50 was > 100 µM (inactive).

What about the GI50 (MDA-MB-231) of the same molecule?
Its GI50 is > 100 µM (inactive).

And the GI50 (MOLT-4)?
Its GI50 is > 100 µM (inactive).

What about the GI50 (HCC 2998) of the same molecule?
Its GI50 is > 100 µM (inactive).

And the GI50 (RPMI-8226)?
Its GI50 is > 100 µM (inactive).

And the GI50 (HCT-116)?
Its GI50 is > 100 µM (inactive).

What about the GI50 (SK-MEL-2) of the same molecule?
Its GI50 is > 100 µM (inactive).

And the GI50 (UACC-62)?
Its GI50 is > 100 µM (inactive).

What about the GI50 (NCI-H522) of the same molecule?
The GI50 was > 100 µM (inactive).

What about the GI50 (SF-295) of the same molecule?
The GI50 was > 100 µM (inactive).

And the GI50 (SK-MEL-28)?
Its GI50 is > 100 µM (inactive).

What about the GI50 (A549) of the same molecule?
The GI50 was > 100 µM (inactive).

Which GI50 (786-0) does the source give for `COCn1cc(C2=C(C)C(=O)C(C)=C(C)C2=O)cn1` here?
Its GI50 is 18 µM (inactive).

What about the GI50 (PC-3) of the same molecule?
Its GI50 is > 100 µM (inactive).

And the GI50 (SR)?
Its GI50 is 39.4 µM (inactive).

And the GI50 (SNB-19)?
Its GI50 is > 100 µM (inactive).

What about the GI50 (TK-10) of the same molecule?
The GI50 was > 100 µM (inactive).

And the GI50 (M14)?
The GI50 was > 100 µM (inactive).

And the GI50 (SNB-75)?
Its GI50 is 11.4 µM (inactive).

What about the GI50 (HCT-15) of the same molecule?
Its GI50 is greater than 100 µM.

What about the GI50 (UO-31) of the same molecule?
The GI50 was 57.5 µM (inactive).

And the GI50 (NCI-H460)?
The GI50 was > 100 µM (inactive).

And the GI50 (HOP-92)?
The GI50 was 12.7 µM (inactive).

And the GI50 (SF-268)?
Its GI50 is 25.4 µM (inactive).

And the GI50 (OVCAR-4)?
Its GI50 is 17.7 µM (inactive).

What about the GI50 (CCRF-CEM) of the same molecule?
Its GI50 is 21.9 µM (inactive).

What about the GI50 (MDA-N) of the same molecule?
Its GI50 is 48.6 µM (inactive).

And the GI50 (DU-145)?
Its GI50 is > 100 µM (inactive).

And the GI50 (EKVX)?
Its GI50 is 18.2 µM (inactive).

And the GI50 (Malme-3M)?
The GI50 was 99.5 µM (inactive).

What about the GI50 (OVCAR-8) of the same molecule?
Its GI50 is 21.1 µM (inactive).

And the GI50 (MDA-MB-435)?
Its GI50 is 19.6 µM (inactive).

And the GI50 (NCI-H23)?
The GI50 was > 100 µM (inactive).

And the GI50 (SF-539)?
Its GI50 is > 100 µM (inactive).

And the GI50 (A498)?
Its GI50 is > 100 µM (inactive).

And the GI50 (SW-620)?
Its GI50 is > 100 µM (inactive).

And the GI50 (HOP-62)?
Its GI50 is > 100 µM (inactive).

And the GI50 (T47D)?
Its GI50 is 23.6 µM (inactive).

And the GI50 (LOX IMVI)?
Its GI50 is > 10 µM (inactive).

What about the GI50 (SN12C) of the same molecule?
The GI50 was > 100 µM (inactive).

And the GI50 (HT-29)?
Its GI50 is > 100 µM (inactive).

What about the GI50 (RXF 393) of the same molecule?
The GI50 was > 100 µM (inactive).

What about the GI50 (HL-60) of the same molecule?
Its GI50 is 4.6 µM (inactive).

What about the GI50 (ACHN) of the same molecule?
Its GI50 is 85.9 µM (inactive).

And the GI50 (IGROV-1)?
Its GI50 is > 100 µM (inactive).

What about the GI50 (SK-MEL-5) of the same molecule?
The GI50 was 38.1 µM (inactive).

And the GI50 (MCF7)?
The GI50 was > 100 µM (inactive).

What about the GI50 (UACC-257) of the same molecule?
The GI50 was 85.5 µM (inactive).

And the GI50 (NCI-H226)?
The GI50 was > 100 µM (inactive).

And the GI50 (K562)?
Its GI50 is 18.9 µM (inactive).

And the GI50 (CAKI-1)?
Its GI50 is > 100 µM (inactive).

And the GI50 (OVCAR-3)?
Its GI50 is 19.5 µM (inactive).

And the GI50 (NCI/ADR-RES)?
The GI50 was 26.2 µM (inactive).

What about the GI50 (OVCAR-5) of the same molecule?
The GI50 was > 100 µM (inactive).

And the GI50 (KM12)?
The GI50 was > 100 µM (inactive).

And the GI50 (Hs-578T)?
Its GI50 is > 100 µM (inactive).

What about the GI50 (COLO 205) of the same molecule?
The GI50 was > 100 µM (inactive).

And the GI50 (MDA-MB-231)?
Its GI50 is 18.6 µM (inactive).

What about the GI50 (MOLT-4) of the same molecule?
The GI50 was 14.9 µM (inactive).

And the GI50 (HCC 2998)?
The GI50 was > 100 µM (inactive).

What about the GI50 (RPMI-8226) of the same molecule?
Its GI50 is 27.9 µM (inactive).

And the GI50 (HCT-116)?
Its GI50 is 20 µM (inactive).

And the GI50 (SK-MEL-2)?
Its GI50 is > 100 µM (inactive).

What about the GI50 (UACC-62) of the same molecule?
Its GI50 is > 100 µM (inactive).

And the GI50 (SF-295)?
The GI50 was > 100 µM (inactive).

And the GI50 (SK-MEL-28)?
The GI50 was > 100 µM (inactive).

What about the GI50 (A549) of the same molecule?
The GI50 was > 100 µM (inactive).
